Results taken from paper PMC7809101, “Fetal bovine serum albumin inhibits antimicrobial peptide activity and binds drug only in complex with α1-antitrypsin” (Scientific Reports, 2021).

Key:
bovine serum albumin = system: bovine serum albumin; design: method as in PMID 24456893, PMID 18779351, PMID 17569519; details: ref [12],[16],[17]; cited from earlier work
Method: (§1) Albumin is the most abundant protein in human serum (HSA, 45 mg/ml), followed in descending order by α1-antitrypsin (A1AT, 3.5 mg/ml), transferrin (2.5 mg/ml), α2-macroglobulin (2.5 mg/ml), haptoglobulin (1.8 mg/ml), low-density lipoprotein (LDL, 1.2 mg/ml), α1-acid glycoprotein (AGP, 0.8 mg/ml) and high-density lipoprotein (HDL, 0.6 mg/ml)[11]. These proteins are involved in the transportation of fatty acids, cholesterols, toxins and drugs in the blood stream.

human serum albumin = details: cited from earlier work
[1] = target: T1, protein D (albumin and α1-antitrypsin complex) (Bos taurus, UniProt P02769+P34955); assay: Fluorescence emission spectrum (blue shift), protein D; type: binding, bovine; details: protein D 0.75 μM, PC buffer, 25 °C, 30 min; excitation 285 nm, emission 300–450 nm; reagent up to: sarkosyl 320, TP4-A12I,A15I 120, ibuprofen 24, phenytoin 20 μM
T1 construct: The active components were further purified by fast performance liquid chromatography (FPLC) Mono Q and S12 column chromatography from the 70% saturated fraction; from tissue; host or cells: fetal bovine serum (70% ammonium sulfate fraction, FPLC Mono Q and Superose 12)
Method: (§2) The mixtures were excited by 285 nm and its emission spectra were recorded between 300 and 450 nm using a temperature-controlled fluorimeter (FP8500, Jasco, Japan)[13].

protein A (albumin) = protein A (albumin) (Bos taurus, UniProt P02769); assay: Fluorescence emission spectrum (blue shift), protein A; type: binding, bovine; design: The homogeneities of collected protein A (albumin), protein B (α1-antitrypsin), protein C (serotransferrin) and protein D complex; from tissue; host or cells: fetal bovine serum (70% ammonium sulfate fraction, FPLC Mono Q); details: protein A 0.75 μM, PC buffer, 25 °C, 30 min; excitation 285 nm, emission 300–450 nm; reagent up to: sarkosyl 320, TP4-A12I,A15I 120, ibuprofen 24, phenytoin 20 μM
Method: as §2

[2] = system: Escherichia coli K-12 (MG1655); assay: Antimicrobial (bactericidal) activity against E. coli, effect of serum or serum proteins; type: cell-based; details: 5% (v/v) FBS in PBS, 37 °C; remaining viable cells (cfu)
Method: The Gram-negative bacteria Escherichia coli K-12 (MG1655) was cultured and plated in/on Luria–Bertani broth/agar plate (Merck Millipore, Darmstadt, Germany). The Gram-positive Staphylococcus aureus (ATCC 6538P) was cultured and plated in tryptic soy broth/agar (BD, MD, USA). The fungus Candida albicans (ATCC 14,053) was cultured and plated in YM broth/agar (BD, MD, USA). The bacteria were grown overnight, washed, and diluted 1:2000 in phosphate buffered saline (PBS), pH 7.5 or DMEM (Life Biotech, California, USA), pH 7.4. Bacteria (ca. 1 × 10^6 colony-forming units, cfu) were mixed with antimicrobial peptides (AMP) in 100 μl PBS and incubated at 37 °C (for bacteria) and at 30 °C (for fungus). Serial dilutions of each AMP-treated bacteria in PBS/DMEM supplemented with FBS were prepared and plated for the determination of remaining viable cells (expressed as cfu). At least three independent experiments were performed for each assay to determine the average value with standard deviation. MBC was defined as the lowest AMP concentration that kills 99.9% of the original inoculum.

fetal bovine serum (FBS) = assay: Band shift of AMPs by fetal bovine serum; type: binding; details: 10–40% FBS; AMP 4 μg; PC buffer, room temperature, 30 min; horizontal native 8% PAGE
Method: (§3) Various AMPs (4 μg each) were incubated with fetal bovine serum (FBS) components at room temperature in 10 μl PC buffer for 30 min and subjected to horizontal native 8% PAGE, pH8.0 or pH8.8, and Coomassie Blue staining.

[3] = target: T1, protein D (albumin and α1-antitrypsin complex); assay: Band shift of AMPs by protein D; type: binding, bovine; details: AMP 4 μg; protein 10 μg (Suppl. Fig. 3a); PC buffer, room temperature, 30 min; 8% horizontal native PAGE
[4] = target: T2, protein B (α1-antitrypsin) (Bos taurus, UniProt P34955); assay: Band shift of AMPs by protein B; type: binding, bovine; design: The homogeneities of collected protein A (albumin), protein B (α1-antitrypsin), protein C (serotransferrin) and protein D complex; from tissue; host or cells: fetal bovine serum (70% ammonium sulfate fraction, FPLC Mono Q); details: AMP 4 μg; protein 10 μg (Suppl. Fig. 3a); PC buffer, room temperature, 30 min; 8% horizontal native PAGE
T2 sequence (P34955 25-416): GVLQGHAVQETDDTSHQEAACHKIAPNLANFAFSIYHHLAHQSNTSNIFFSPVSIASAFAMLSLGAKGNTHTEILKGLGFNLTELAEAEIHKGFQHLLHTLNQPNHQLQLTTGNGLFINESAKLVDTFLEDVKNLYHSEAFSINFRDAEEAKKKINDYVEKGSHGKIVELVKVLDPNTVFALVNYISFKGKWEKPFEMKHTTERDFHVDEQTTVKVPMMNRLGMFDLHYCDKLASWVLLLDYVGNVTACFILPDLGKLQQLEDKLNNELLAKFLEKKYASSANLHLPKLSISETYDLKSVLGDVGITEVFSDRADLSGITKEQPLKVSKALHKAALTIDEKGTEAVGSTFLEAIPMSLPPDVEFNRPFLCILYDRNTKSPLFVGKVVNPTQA
Method: as §3

human serum components = details: cited from earlier work
Method: as §1

trypsin = assay: Antitrypsin activity analysis; type: biochemical; details: trypsin 2 ng (0.2 μg/ml) pre-incubated 30 min, PC buffer, 37 °C, 15% reduced SDS-PAGE; for inhibition of proteolytic activity of trypsin toward SAAP159: substrate SAAP159 4 μg (0.4 mg/ml); for inhibition of proteolytic activity of trypsin toward TP4: substrate TP4 2 μg (0.2 mg/ml)
Method: The inhibitions of trypsin’s proteolytic activity by serum components on peptides TP4 and SAAP159 were determined as follows. Freshly diluted trypsin (2 ng; 0.2 μg/ml) was pre-incubated with various concentrations of serum components in PC buffer for 30 min before the mixture was added to TP4 (2 μg; 0.2 mg/ml) or SAAP159 (4 μg/; 0.4 mg/ml) peptides in 10 μl PC buffer at 37 °C for 30 min. The digested peptide fragments were analyzed by 15% reduced SDS-PAGE and Coomassie Blue staining.

[5] = target: biotinylated TP4-A12I,A15I (tilapia); assay: BLI; Octet RED384; biotinylated TP4-A12I,A15I (10 μM) immobilised on a Streptavidin biosensor; serial dilutions of serum components in PC buffer as analyte; global fit (1:1)

T1 sequence (P02769 25-607, one chain of several): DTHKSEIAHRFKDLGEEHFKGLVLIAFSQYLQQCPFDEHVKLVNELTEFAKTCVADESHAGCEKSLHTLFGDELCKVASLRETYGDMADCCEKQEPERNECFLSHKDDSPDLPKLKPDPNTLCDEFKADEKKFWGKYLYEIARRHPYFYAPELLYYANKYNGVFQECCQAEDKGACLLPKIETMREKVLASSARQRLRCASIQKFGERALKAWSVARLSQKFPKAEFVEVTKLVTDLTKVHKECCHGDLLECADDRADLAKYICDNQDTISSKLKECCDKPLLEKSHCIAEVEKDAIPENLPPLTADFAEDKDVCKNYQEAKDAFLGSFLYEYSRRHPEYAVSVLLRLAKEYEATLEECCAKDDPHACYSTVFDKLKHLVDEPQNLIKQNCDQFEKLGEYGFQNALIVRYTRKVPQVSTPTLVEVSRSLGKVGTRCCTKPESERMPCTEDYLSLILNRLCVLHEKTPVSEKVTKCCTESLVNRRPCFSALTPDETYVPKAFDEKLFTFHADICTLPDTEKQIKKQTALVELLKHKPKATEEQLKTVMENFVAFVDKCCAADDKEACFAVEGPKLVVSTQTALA
protein A (albumin), sequence (P02769 25-607): as the sequence (P02769 25-607, one chain of several) above

CO/N=C(\C(=O)N[C@@H]1C(=O)N2C(C(=O)O)=C(CSc3nc(=O)c(=O)[nH]n3C)CS[C@H]12)c1csc(N)n1 [ceftriaxone]
bound and inhibited by bovine serum albumin (bovine serum albumin): bound and inhibited
bound and inhibited by human serum albumin (human serum albumin; ref [12],[16],[17]): bound and inhibited

COc1c(N2C[C@@H]3CCCN[C@@H]3C2)c(F)cc2c(=O)c(C(=O)O)cn(C3CC3)c12 [moxifloxacin]
bound and inhibited by bovine serum albumin (bovine serum albumin): bound and inhibited

CCCCCCCCCCCC(=O)N(C)CC(=O)[O-].[Na+] [sarkosyl]
blue shift of fluorescence emission spectrum, protein D [1]: caused blue shifts
blue shift of fluorescence emission spectrum, protein A (protein A (albumin)): caused blue shifts

CC(=O)CC(c1ccccc1)c1c(O)c2ccccc2oc1=O (stereo not drawn) [warfarin]
bound to site I of human albumin (human serum albumin; site I, ref [8]–[10]): More than 90%

Iseganan [reference compound]
effect of FBS on antimicrobial activity against E. coli [2]: serum-mediated repression
mobility of AMP in band shift assay with FBS (fetal bovine serum (FBS)): retarded
binding to protein D (band shift) [3]: also bound by protein D
binding to protein B (band shift) [4]: not by protein A and protein B

Polymyxin B
effect of FBS on antimicrobial activity against E. coli [2]: not

daptomycin
bound to human serum components (human serum components): 90-94%
order of binding to human serum components (human serum components): albumin > > α1-antitrypsin > low-density lipoprotein > high-density lipoprotein > transferrin
bound by human serum albumin (human serum albumin): 90-94%

protein A: bovine serum albumin, free form, purified from fetal bovine serum
inhibition of proteolytic activity of trypsin toward SAAP159 (trypsin): only minimally affected
inhibition of proteolytic activity of trypsin toward TP4 (trypsin): only minimally affected

protein D complex (albumin and α1-antitrypsin) (from UniProt P02769 25-607; P34955 25-416)
Kd [5]: 21.7 nM

protein D: albumin and α1-antitrypsin complex linked by disulfide bond, from fetal bovine serum
inhibition of proteolytic activity of trypsin toward SAAP159 (trypsin): repressed
inhibition of proteolytic activity of trypsin toward TP4 (trypsin): repressed

B1: protein B: bovine α1-antitrypsin, free form, purified from fetal bovine serum (protein)
chain: GVLQGHAVQETDDTSHQEAACHKIAPNLANFAFSIYHHLAHQSNTSNIFFSPVSIASAFAMLSLGAKGNTHTEILKGLGFNLTELAEAEIHKGFQHLLHTLNQPNHQLQLTTGNGLFINESAKLVDTFLEDVKNLYHSEAFSINFRDAEEAKKKINDYVEKGSHGKIVELVKVLDPNTVFALVNYISFKGKWEKPFEMKHTTERDFHVDEQTTVKVPMMNRLGMFDLHYCDKLASWVLLLDYVGNVTACFILPDLGKLQQLEDKLNNELLAKFLEKKYASSANLHLPKLSISETYDLKSVLGDVGITEVFSDRADLSGITKEQPLKVSKALHKAALTIDEKGTEAVGSTFLEAIPMSLPPDVEFNRPFLCILYDRNTKSPLFVGKVVNPTQA
inhibition of proteolytic activity of trypsin toward SAAP159 (trypsin): repressed
inhibition of proteolytic activity of trypsin toward TP4 (trypsin): repressed
